According to paper PMC12446468, “Anti-inflammatory and cytotoxic assessment of flavonoids isolated from Viola odorata flowers with computer-guided docking study” (Scientific Reports, 2025):
pIC50: −log10 of the molar value. Converted amounts (≈) assume the structure as drawn.

Assays:
[1] = biological target: T1, COX-2 (Homo sapiens, UniProt P35354); test: COX-2 inhibition assay (Cayman COX kit); format: biochemical, ovine/human
T1 construct: purchased Cayman 560131
T1 sequence (P35354 18-604): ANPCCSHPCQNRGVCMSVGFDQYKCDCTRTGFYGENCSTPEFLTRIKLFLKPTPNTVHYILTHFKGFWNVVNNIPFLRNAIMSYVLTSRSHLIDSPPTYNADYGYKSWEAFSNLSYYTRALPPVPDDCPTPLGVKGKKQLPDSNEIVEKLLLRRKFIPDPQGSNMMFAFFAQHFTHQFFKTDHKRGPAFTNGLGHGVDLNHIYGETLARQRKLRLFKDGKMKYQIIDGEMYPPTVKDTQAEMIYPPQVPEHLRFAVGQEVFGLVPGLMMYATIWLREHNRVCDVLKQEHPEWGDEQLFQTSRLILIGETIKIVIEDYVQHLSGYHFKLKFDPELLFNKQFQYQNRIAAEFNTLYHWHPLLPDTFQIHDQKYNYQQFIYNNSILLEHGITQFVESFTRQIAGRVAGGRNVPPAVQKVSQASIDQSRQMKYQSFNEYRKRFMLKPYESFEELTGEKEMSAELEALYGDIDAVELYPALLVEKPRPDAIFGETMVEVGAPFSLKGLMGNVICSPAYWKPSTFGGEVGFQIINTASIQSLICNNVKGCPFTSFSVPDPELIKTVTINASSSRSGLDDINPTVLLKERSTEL
Source text: (§1) The requirements for High-Performance Liquid Chromatography (HPLC) and all compounds tested were of the utmost analytical purity. […] COX-1 and COX-2 (ovine/human), as well as the 5-LOX enzyme (human recombinant) were obtained from Sigma-Aldrich. Dulbecco’s Modified Eagle’s Medium (DMEM), along with penicillin/streptomycin and L-glutamine, were acquired from Gibco BRL, California, USA. Fetal bovine serum (FBS) and 3-(4, 5-dimethylthiazol-2-yl)-2, 5-[…] (MTT) were supplied by Sigma-Aldrich, St. Louis, Missouri, USA.
(§2) The methanolic extract of V. odorata flowers and isolated flavonoids were subjected to an in vitro anti-inflammatory assessment by inhibiting two isoenzymes, cyclooxygenase COX-1 and COX-2 (ovine/human), as well as the 5-LOX enzyme (human recombinant).

[2] = tested on: hepatocellular carcinoma (HepG2); test: MTT cytotoxicity assay, HepG2; format: cell-based, human; settings: Homo sapiens, HepG2, 48 h, read-out: IC50
Protocol: (§3) The assessment of cytotoxicity for the methanolic extract and isolated flavonoids was performed under controlled and sterile conditions within a Class II A2 Laminar flow biosafety cabinet. The carcinoma cell lines used in this study was obtained from Nawah Scientific Inc. (Cairo, Egypt). The cells were cultured in Dulbecco’s Modified Eagle’s Medium, enriched with 10% heat-inactivated fetal bovine serum, 100 U/ml penicillin, and 100 μg/ml streptomycin sulfate, maintained at […] in humidified incubators with 5% CO2. Upon reaching approximately 80% confluence, the cells were subcultured using a trypsin–EDTA solution. Harvesting occurred during the logarithmic growth phase. The methanolic extract and isolated flavonoids were dissolved in DMSO and stored at − 20 °C. For each experimental trial, the stock solutions were mixed with the culture medium to obtain the required final concentrations.
(§4) The effectiveness of the extract was compared to that of the reference drug, Doxorubicin. The percentage of cell viability was calculated by taking the ratio of the absorbance of the plant extract to that of the control, multiplied by 100. Furthermore, the IC50 value of the plant extract was determined using Sigma Plot software version 11 (Spw.exe) (https://sigmaplot.software.informer.com/11.0/).

[3] = MTT cytotoxicity assay, HepG2; format: cell-based, human; settings: human, HepG2 cells (hepatocellular carcinoma), 48 h
Protocol: as §3, §4

[4] = biological target: T2, COX-1 (Ovis aries, UniProt P05979); test: COX-1 inhibition assay (Cayman COX kit); format: biochemical, ovine/human; settings: mean ± SE, n = 3
T2 construct: purchased Cayman 560131
T2 sequence (P05979 25-600): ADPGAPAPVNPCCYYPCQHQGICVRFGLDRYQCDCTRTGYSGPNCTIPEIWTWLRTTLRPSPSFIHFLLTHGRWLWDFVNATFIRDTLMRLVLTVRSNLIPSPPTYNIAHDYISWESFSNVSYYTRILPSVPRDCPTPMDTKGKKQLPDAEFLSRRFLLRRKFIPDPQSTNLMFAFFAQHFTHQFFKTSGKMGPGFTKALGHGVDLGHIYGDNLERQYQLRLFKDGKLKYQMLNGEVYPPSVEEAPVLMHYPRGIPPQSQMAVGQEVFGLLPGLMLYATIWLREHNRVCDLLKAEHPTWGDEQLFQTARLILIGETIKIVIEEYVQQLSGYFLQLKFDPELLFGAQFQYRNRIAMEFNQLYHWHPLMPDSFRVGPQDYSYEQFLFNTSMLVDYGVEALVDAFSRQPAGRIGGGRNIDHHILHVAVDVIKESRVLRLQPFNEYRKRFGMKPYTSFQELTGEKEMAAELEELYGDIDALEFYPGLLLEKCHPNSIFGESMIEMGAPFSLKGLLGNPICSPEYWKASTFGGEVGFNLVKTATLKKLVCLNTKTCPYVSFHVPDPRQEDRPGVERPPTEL
Source text: as §1, §2

[5] = biological target: T3, 5-LOX enzyme (human recombinant) (Homo sapiens, UniProt P09917); test: 5-lipoxygenase inhibition assay (5-LOX kit); format: biochemical; settings: mean ± SE, n = 3
T3 construct: purchased Sigma-Aldrich 437996
T3 sequence (P09917 1-674): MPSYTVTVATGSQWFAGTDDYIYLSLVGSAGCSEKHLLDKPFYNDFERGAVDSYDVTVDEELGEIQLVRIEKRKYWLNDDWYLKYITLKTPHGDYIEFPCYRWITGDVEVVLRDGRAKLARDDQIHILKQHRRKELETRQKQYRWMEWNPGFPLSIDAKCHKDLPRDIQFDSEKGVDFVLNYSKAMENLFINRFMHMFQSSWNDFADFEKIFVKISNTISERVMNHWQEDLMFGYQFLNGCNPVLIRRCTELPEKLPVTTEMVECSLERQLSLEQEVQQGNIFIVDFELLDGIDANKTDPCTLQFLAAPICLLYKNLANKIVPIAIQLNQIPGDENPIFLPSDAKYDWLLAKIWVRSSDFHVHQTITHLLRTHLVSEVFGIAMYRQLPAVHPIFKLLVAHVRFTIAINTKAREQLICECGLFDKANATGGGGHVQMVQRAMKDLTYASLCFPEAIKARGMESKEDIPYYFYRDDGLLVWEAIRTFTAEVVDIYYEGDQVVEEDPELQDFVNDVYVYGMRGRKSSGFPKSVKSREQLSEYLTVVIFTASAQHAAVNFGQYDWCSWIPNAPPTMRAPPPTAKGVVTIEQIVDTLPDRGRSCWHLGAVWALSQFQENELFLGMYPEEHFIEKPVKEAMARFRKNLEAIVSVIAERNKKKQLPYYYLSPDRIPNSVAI
Source text: as §1, §2

COc1c(O)cc2oc(-c3ccccc3)c(OC)c(=O)c2c1O [5,7-Dihydroxy-3,6-dimethoxyflavone]
pIC50 ([1]; mean ± SE, n = 3): 5.33
Selectivity Index (COX-1/COX-2) ([1]; ratio of IC50 COX-1 to IC50 COX-2): 0.83
IC50 [2]: 32 µg/mL (≈ 102 µM)
cytotoxicity at 48 h, 6.25 µg/ml ([3]; HepG2, 6.25 ug/ml): 24.9%
viability at 48 h, 6.25 µg/ml ([3]; HepG2, 6.25 ug/ml, read-out: % Cell viability): 75.1%
cytotoxicity at 48 h, 12.5 µg/ml ([3]; HepG2, 12.5 ug/ml): 35.4%
viability at 48 h, 12.5 µg/ml ([3]; HepG2, 12.5 ug/ml, read-out: % Cell viability): 64.9%
cytotoxicity at 48 h, 25 µg/ml ([3]; HepG2, 25 ug/ml): 55.9%
viability at 48 h, 25 µg/ml ([3]; HepG2, 25 ug/ml, read-out: % Cell viability): 44.1%
cytotoxicity at 48 h, 50 µg/ml ([3]; HepG2, 50 ug/ml): 69.9%
viability at 48 h, 50 µg/ml ([3]; HepG2, 50 ug/ml, read-out: % Cell viability): 30.1%
cytotoxicity at 48 h, 100 µg/ml ([3]; HepG2, 100 ug/ml): 83.5%
viability at 48 h, 100 µg/ml ([3]; HepG2, 100 ug/ml, read-out: % Cell viability): 16.5%
pIC50 [4]: 5.41
pIC50 [5]: 5.50
